Source: the NIST ThermoML archive (doi:10.1021/acs.jced.9b00249)

Assays:
[1] = for vapor or sublimation pressure: Diaphragm manometer; for mass density: isochoric method
[2] = xn = mol fraction of the nth substance listed; settings: isochoric method

CCOCC [diethyl ether]
[1], Liquid
Settings	vapor or sublimation pressure [kPa]
424.3 K	1790
434.3 K	2150
438.9 K	2390

[1], Liquid
Settings	mass density [kg/m3]
442.3 K, 3250 kPa	473
445.3 K, 3750 kPa	473
447.8 K, 4200 kPa	473
450.2 K, 4750 kPa	473
453.9 K, 5680 kPa	473
459.4 K, 6890 kPa	473

CCOCC [diethyl ether] + CCC
[2]
Settings	mass density [kg/m3]
351.8 K, 2080 kPa, Liquid, x2 = 0.748	474
359.2 K, 4110 kPa, Fluid (supercritical or subcritical phases), x2 = 0.748	474
362.8 K, 2080 kPa, Liquid, x2 = 0.651	474
369.5 K, 7470 kPa, Fluid (supercritical or subcritical phases), x2 = 0.748	474
370.3 K, 3910 kPa, Fluid (supercritical or subcritical phases), x2 = 0.651	474
372 K, 3100 kPa, Liquid, x2 = 0.743	401
379.4 K, 6660 kPa, Fluid (supercritical or subcritical phases), x2 = 0.651	474
379.4 K, 10830 kPa, Fluid (supercritical or subcritical phases), x2 = 0.748	474
382.7 K, 4110 kPa, Fluid (supercritical or subcritical phases), x2 = 0.743	401
387.9 K, 9300 kPa, Fluid (supercritical or subcritical phases), x2 = 0.651	474
390.1 K, 5340 kPa, Fluid (supercritical or subcritical phases), x2 = 0.743	401
391.1 K, 14590 kPa, Fluid (supercritical or subcritical phases), x2 = 0.748	474
394.9 K, 4010 kPa, Liquid, x2 = 0.655	401
397.1 K, 12250 kPa, Fluid (supercritical or subcritical phases), x2 = 0.651	474
399.9 K, 4420 kPa, Liquid, x2 = 0.742	311
401.1 K, 7670 kPa, Fluid (supercritical or subcritical phases), x2 = 0.743	401
401.1 K, 17840 kPa, Fluid (supercritical or subcritical phases), x2 = 0.748	474
401.9 K, 5030 kPa, Fluid (supercritical or subcritical phases), x2 = 0.655	401
405.6 K, 5640 kPa, Fluid (supercritical or subcritical phases), x2 = 0.655	401
407.5 K, 5130 kPa, Fluid (supercritical or subcritical phases), x2 = 0.742	311
407.7 K, 15710 kPa, Fluid (supercritical or subcritical phases), x2 = 0.651	474
409.2 K, 4620 kPa, Liquid, x2 = 0.651	311
410.7 K, 9710 kPa, Fluid (supercritical or subcritical phases), x2 = 0.743	401
411.4 K, 21600 kPa, Fluid (supercritical or subcritical phases), x2 = 0.748	474
412 K, 6760 kPa, Fluid (supercritical or subcritical phases), x2 = 0.655	401
417.7 K, 6250 kPa, Fluid (supercritical or subcritical phases), x2 = 0.742	311
418.5 K, 5130 kPa, Fluid (supercritical or subcritical phases), x2 = 0.651	311
419.2 K, 19360 kPa, Fluid (supercritical or subcritical phases), x2 = 0.651	474
419.7 K, 11640 kPa, Fluid (supercritical or subcritical phases), x2 = 0.743	401
422.6 K, 8790 kPa, Fluid (supercritical or subcritical phases), x2 = 0.655	401
429.1 K, 6250 kPa, Fluid (supercritical or subcritical phases), x2 = 0.651	311
429.1 K, 7570 kPa, Fluid (supercritical or subcritical phases), x2 = 0.742	311
429.6 K, 10210 kPa, Fluid (supercritical or subcritical phases), x2 = 0.655	401
430.4 K, 13770 kPa, Fluid (supercritical or subcritical phases), x2 = 0.743	401
437.5 K, 11740 kPa, Fluid (supercritical or subcritical phases), x2 = 0.655	401
437.5 K, 15300 kPa, Fluid (supercritical or subcritical phases), x2 = 0.743	401
437.8 K, 8590 kPa, Fluid (supercritical or subcritical phases), x2 = 0.742	311
438.5 K, 7270 kPa, Fluid (supercritical or subcritical phases), x2 = 0.651	311
447.3 K, 9710 kPa, Fluid (supercritical or subcritical phases), x2 = 0.742	311
447.6 K, 13670 kPa, Fluid (supercritical or subcritical phases), x2 = 0.655	401
449 K, 8390 kPa, Fluid (supercritical or subcritical phases), x2 = 0.651	311
452.4 K, 18650 kPa, Fluid (supercritical or subcritical phases), x2 = 0.743	401
455 K, 15200 kPa, Fluid (supercritical or subcritical phases), x2 = 0.655	401
458.5 K, 9500 kPa, Fluid (supercritical or subcritical phases), x2 = 0.651	311
459 K, 11220 kPa, Fluid (supercritical or subcritical phases), x2 = 0.742	311
466.1 K, 12150 kPa, Fluid (supercritical or subcritical phases), x2 = 0.742	311
467.4 K, 10620 kPa, Fluid (supercritical or subcritical phases), x2 = 0.651	311
470 K, 10930 kPa, Fluid (supercritical or subcritical phases), x2 = 0.651	311

COC [dimethyl ether]
[1]
Settings	mass density [kg/m3]
382.8 K, 4580 kPa, Liquid	451
402.8 K, 8580 kPa, Gas	451
411.6 K, 10360 kPa, Gas	451
419.5 K, 12150 kPa, Gas	451
425.4 K, 13670 kPa, Gas	451
429.8 K, 14600 kPa, Gas	451
432.6 K, 15210 kPa, Gas	451
437.2 K, 16200 kPa, Gas	451

CCCCC [pentane]
Settings	vapor or sublimation pressure [kPa]
[1], 406.9 K, Liquid	1300

[1], Liquid
Settings	mass density [kg/m3]
417.1 K, 3060 kPa	484
428 K, 6070 kPa	484
436.6 K, 8340 kPa	484
446.3 K, 10730 kPa	484
453.2 K, 12730 kPa	484

CCCCC [pentane] + CCC
[2]
Settings	mass density [kg/m3]
319.6 K, 5320 kPa, Liquid, x2 = 0.849	507
320.4 K, 12800 kPa, Liquid, x2 = 0.512	567
324.9 K, 8620 kPa, Liquid, x2 = 0.849	507
326.1 K, 16230 kPa, Liquid, x2 = 0.512	567
328.6 K, 10330 kPa, Liquid, x2 = 0.849	507
331.8 K, 12010 kPa, Liquid, x2 = 0.849	507
332 K, 19720 kPa, Liquid, x2 = 0.512	567
336.2 K, 14280 kPa, Liquid, x2 = 0.849	507
337.7 K, 22920 kPa, Liquid, x2 = 0.512	567
340.8 K, 16310 kPa, Liquid, x2 = 0.849	507
341.2 K, 24970 kPa, Liquid, x2 = 0.512	567
345.3 K, 18250 kPa, Liquid, x2 = 0.849	507
349.2 K, 20380 kPa, Liquid, x2 = 0.849	507
353.6 K, 22340 kPa, Liquid, x2 = 0.849	507
357.2 K, 24290 kPa, Liquid, x2 = 0.849	507
394.8 K, 3250 kPa, Liquid, x2 = 0.551	401
397.7 K, 4520 kPa, Liquid, x2 = 0.78	311
404.7 K, 4010 kPa, Fluid (supercritical or subcritical phases), x2 = 0.551	401
406.5 K, 5640 kPa, Fluid (supercritical or subcritical phases), x2 = 0.78	311
409.3 K, 3610 kPa, Liquid, x2 = 0.474	384
410.5 K, 4620 kPa, Fluid (supercritical or subcritical phases), x2 = 0.551	401
416.5 K, 6760 kPa, Fluid (supercritical or subcritical phases), x2 = 0.78	311
418.3 K, 5640 kPa, Fluid (supercritical or subcritical phases), x2 = 0.551	401
419.2 K, 4730 kPa, Fluid (supercritical or subcritical phases), x2 = 0.474	384
428.6 K, 8280 kPa, Fluid (supercritical or subcritical phases), x2 = 0.78	311
428.9 K, 6560 kPa, Fluid (supercritical or subcritical phases), x2 = 0.474	384
437.3 K, 9610 kPa, Fluid (supercritical or subcritical phases), x2 = 0.78	311
439.5 K, 8280 kPa, Fluid (supercritical or subcritical phases), x2 = 0.474	384
447.3 K, 10720 kPa, Fluid (supercritical or subcritical phases), x2 = 0.78	311
449.2 K, 10010 kPa, Fluid (supercritical or subcritical phases), x2 = 0.474	384
456.4 K, 12260 kPa, Fluid (supercritical or subcritical phases), x2 = 0.78	311

CCC [propane]
[1], Liquid
Settings	vapor or sublimation pressure [kPa]
305.9 K	1030
319.2 K	1270
326.8 K	2260
334.3 K	2350
349.3 K	3040
362.1 K	3920
367.9 K	4440

[1], Gas
Settings	mass density [kg/m3]
383.7 K, 5980 kPa	292
397.4 K, 7350 kPa	292
402.9 K, 7940 kPa	292
434 K, 12760 kPa	292
